Source: ChEMBL document CHEMBL3875233, “Non-kinase targets of protein kinase inhibitors” (Nat Rev Drug Discov, 2017)
pEC50, pIC50, pKd, pKi: −log10 of the molar value.

Columns and labels:
[1] = Inhibition of tubulin (unknown origin) polymerization by spectrophotometric method; design: species or system Homo sapiens
[2] = molecular target: T1, Bromodomain-containing protein 4 (Homo sapiens, UniProt O60885)
Description: Binding affinity to recombinant human His6-TEV protease-tagged BRD4 bromodomain 1 expressed in bacteria by isothermal titration calorimetric method

[3] = molecular target: Mitogen-activated protein kinase 14 (Mus musculus, UniProt P47811); assay: Inhibition of mouse N-terminal 5His-tagged p38alpha assessed as decrease in 6His-tagged MK2a (51 to 400 residues) phosphorylation in presence of [gamma-33P]-ATP by scintillation counting method
[4] = Inhibition of tubulin polymerization in human U87 cells assessed as decrease in cell viability after 72 hrs by Alamar blue assay; assay type: cell-based, U-87MG ATCC; conditions: U-87 MG
[5] = molecular target: T1, Bromodomain-containing protein 4; assay: Inhibition of immobilized N-LY294002 bead binding to C-terminal Flag-tagged BRD4 (unknown origin) expressed in HEK293T cell nuclear extract incubated for 1 hr by LC-MS/MS analysis; design: species or system HEK-293T
[6] = molecular target: Bromodomain-containing protein 2 (Homo sapiens, UniProt P25440); assay: Inhibition of immobilized N-LY294002 bead binding to BRD2 (unknown origin) expressed in HEK293T cell nuclear extract incubated for 1 hr by LC-MS/MS analysis; design: species or system HEK-293T
[7] = molecular target: Bromodomain-containing protein 3 (Homo sapiens, UniProt Q15059); assay: Inhibition of immobilized N-LY294002 bead binding to BRD3 (unknown origin) expressed in HEK293T cell nuclear extract incubated for 1 hr by LC-MS/MS analysis; design: species or system HEK-293T
[8] = molecular target: T2, Ribosyldihydronicotinamide dehydrogenase [quinone] (Homo sapiens, UniProt P16083)
T2 sequence (P16083 whole entry): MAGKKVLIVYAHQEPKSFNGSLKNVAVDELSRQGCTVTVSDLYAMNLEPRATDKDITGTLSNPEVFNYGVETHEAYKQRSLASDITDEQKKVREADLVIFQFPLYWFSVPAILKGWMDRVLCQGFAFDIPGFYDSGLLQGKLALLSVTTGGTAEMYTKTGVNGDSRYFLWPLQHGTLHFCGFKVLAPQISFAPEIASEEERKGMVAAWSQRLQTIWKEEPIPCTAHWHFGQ
Description: Inhibition of kinobead binding to NQO2 in human K562 cells incubated for 30 mins by iTRAQ reagent-based mass spectrometric method

[9] = molecular target: MAP kinase-activated protein kinase 2 (Homo sapiens, UniProt P49137); assay: Inhibition of recombinant MK2 (45 to 400 residues) (unknown origin) using fluorescein isothiocyanate-KKKALSRQLSVAA as substrate
[10] = molecular target: T3, Receptor-type tyrosine-protein kinase FLT3 (Homo sapiens, UniProt P36888); assay: Inhibition of FLT3 (unknown origin)
T3 sequence (P36888 whole entry): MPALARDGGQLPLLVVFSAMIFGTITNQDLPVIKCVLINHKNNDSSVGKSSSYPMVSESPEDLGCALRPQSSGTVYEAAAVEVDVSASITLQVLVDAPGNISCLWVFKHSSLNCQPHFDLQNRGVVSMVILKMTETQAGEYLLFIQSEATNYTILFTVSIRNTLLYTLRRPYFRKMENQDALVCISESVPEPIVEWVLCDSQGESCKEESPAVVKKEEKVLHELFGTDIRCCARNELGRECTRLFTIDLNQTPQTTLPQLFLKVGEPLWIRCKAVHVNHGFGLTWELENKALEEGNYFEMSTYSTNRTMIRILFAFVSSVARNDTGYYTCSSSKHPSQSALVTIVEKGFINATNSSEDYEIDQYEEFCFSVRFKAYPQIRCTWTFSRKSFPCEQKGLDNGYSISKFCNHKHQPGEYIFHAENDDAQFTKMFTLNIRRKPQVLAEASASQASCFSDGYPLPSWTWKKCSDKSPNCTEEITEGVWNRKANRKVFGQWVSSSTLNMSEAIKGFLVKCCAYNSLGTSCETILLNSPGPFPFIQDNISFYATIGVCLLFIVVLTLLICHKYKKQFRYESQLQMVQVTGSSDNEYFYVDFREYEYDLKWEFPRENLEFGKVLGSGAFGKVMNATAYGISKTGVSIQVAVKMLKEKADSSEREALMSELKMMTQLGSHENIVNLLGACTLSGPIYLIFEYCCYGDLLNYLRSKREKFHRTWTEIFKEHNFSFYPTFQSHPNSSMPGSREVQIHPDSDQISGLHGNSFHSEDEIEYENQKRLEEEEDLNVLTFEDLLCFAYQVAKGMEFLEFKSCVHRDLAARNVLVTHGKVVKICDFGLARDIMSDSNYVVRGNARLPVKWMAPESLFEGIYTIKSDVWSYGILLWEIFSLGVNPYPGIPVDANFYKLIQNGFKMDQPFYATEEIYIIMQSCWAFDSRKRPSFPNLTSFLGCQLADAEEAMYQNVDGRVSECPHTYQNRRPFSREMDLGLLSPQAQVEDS

[11] = molecular target: Oxidized purine nucleoside triphosphate hydrolase (Homo sapiens, UniProt P36639)
Description: Inhibition of DsRed-fused MTH1 (unknown origin) expressed in HEK293T cells using 8-oxo-dGTP as substrate

[12] = Inhibition of porcine brain tubulin polymerization measured every min during incubation by fluorescence assay; design: species or system Sus scrofa
[13] = molecular target: T4, Phosphatidylinositol 4,5-bisphosphate 3-kinase catalytic subunit delta isoform (Homo sapiens, UniProt O00329); assay: Inhibition of immobilized N-LY294002 bead binding to PI3Kdelta (unknown origin) expressed in HEK293T cells incubated for 1 hr by LC-MS/MS analysis; assay type: cell-based, HEK-293T
T4 sequence (O00329 whole entry): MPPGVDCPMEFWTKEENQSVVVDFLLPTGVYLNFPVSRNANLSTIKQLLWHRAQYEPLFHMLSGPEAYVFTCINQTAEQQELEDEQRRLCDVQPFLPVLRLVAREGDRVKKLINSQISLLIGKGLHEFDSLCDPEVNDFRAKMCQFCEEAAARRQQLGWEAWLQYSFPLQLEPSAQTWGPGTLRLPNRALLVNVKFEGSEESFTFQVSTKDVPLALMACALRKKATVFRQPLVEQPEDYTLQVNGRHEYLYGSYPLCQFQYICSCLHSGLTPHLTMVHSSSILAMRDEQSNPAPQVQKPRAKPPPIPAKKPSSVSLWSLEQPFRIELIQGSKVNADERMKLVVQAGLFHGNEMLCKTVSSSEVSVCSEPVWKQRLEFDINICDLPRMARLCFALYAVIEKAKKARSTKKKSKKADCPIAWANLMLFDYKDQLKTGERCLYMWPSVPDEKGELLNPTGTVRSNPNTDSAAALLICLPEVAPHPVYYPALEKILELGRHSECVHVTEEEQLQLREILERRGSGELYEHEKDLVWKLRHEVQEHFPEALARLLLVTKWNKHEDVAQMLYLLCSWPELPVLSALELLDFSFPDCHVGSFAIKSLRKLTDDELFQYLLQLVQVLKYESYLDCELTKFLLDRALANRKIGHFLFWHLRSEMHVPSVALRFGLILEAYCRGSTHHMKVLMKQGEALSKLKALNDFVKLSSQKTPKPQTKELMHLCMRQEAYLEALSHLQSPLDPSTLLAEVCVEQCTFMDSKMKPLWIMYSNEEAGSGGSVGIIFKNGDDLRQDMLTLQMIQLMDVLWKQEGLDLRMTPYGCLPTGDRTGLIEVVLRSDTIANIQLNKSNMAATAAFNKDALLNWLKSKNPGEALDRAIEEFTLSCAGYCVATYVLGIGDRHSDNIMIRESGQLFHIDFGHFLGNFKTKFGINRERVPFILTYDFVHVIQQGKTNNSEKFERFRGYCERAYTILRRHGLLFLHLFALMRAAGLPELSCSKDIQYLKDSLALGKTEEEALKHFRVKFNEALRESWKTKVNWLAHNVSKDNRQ

[14] = molecular target: T1, Bromodomain-containing protein 4; remark: listed apart in the source
[15] = molecular target: Bromodomain testis-specific protein (Homo sapiens) (UniProt Q58F21)
[16] = molecular target: T5, Ferrochelatase, mitochondrial (Homo sapiens, UniProt P22830); assay: Stabilization of FECH in human K562 cells after 1 hr by thermal shift assay; assay type: cell-based
T5 sequence (P22830 whole entry): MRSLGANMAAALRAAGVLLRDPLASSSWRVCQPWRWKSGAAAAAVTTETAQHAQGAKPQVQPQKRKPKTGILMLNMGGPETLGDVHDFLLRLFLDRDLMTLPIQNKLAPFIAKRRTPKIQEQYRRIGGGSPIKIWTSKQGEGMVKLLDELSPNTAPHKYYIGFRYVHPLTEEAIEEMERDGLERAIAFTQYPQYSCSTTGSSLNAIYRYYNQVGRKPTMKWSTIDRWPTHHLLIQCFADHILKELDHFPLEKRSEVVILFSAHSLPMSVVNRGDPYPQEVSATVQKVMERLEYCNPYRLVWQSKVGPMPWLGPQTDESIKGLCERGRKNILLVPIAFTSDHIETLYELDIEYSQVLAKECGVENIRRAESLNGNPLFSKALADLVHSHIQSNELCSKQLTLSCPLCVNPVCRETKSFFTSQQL

[17] = molecular target: Casein kinase I isoform epsilon (Homo sapiens, UniProt P49674); assay: Inhibition of human CK1epsilon using casein as substrate in presence of [gamma-32P]-ATP
[18] = molecular target: Casein kinase I isoform delta (Homo sapiens, UniProt P48730); assay: Inhibition of human CK1delta using casein as substrate in presence of [gamma-32P]-ATP
[19] = Inhibition of porcine brain tubulin polymerization measured every min for 1 hr by fluorescence assay; design: species or system Sus scrofa
[20] = molecular target: T6, Receptor-interacting serine/threonine-protein kinase 1 (Homo sapiens, UniProt Q13546); assay: Inhibition of recombinant human GST-fused RIPK1 (1 to 497 residues) expressed in baculovirus infected insect Sf9 cells in presence of 32P-gamma-ATP after 30 mins by autoradiogram-based Western blot method
T6 sequence (Q13546 whole entry): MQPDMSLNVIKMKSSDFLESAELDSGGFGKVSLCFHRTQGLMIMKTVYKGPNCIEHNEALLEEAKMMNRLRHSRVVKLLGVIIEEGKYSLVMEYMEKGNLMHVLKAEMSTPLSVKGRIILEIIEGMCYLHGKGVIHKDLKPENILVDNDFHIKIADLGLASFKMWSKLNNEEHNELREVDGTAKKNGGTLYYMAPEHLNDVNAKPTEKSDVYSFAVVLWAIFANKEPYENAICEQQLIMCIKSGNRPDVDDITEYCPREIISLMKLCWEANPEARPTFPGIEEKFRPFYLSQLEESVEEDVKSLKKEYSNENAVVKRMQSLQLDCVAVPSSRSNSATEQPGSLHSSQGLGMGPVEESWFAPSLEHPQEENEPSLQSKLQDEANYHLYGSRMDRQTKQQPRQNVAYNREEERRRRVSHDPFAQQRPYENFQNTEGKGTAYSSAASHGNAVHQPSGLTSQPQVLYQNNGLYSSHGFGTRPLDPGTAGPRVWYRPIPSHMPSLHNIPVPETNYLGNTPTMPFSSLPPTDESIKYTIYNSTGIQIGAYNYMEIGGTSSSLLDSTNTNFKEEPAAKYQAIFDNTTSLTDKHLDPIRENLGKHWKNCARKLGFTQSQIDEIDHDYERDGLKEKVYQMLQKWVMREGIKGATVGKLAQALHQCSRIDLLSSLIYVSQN

[21] = molecular target: Indoleamine 2,3-dioxygenase 1 (Homo sapiens, UniProt P14902); assay: Inhibition of recombinant human IDO using L-tryptophan as substrate after 60 mins
Chain of Indoleamine 2,3-dioxygenase 1 (P14902 whole entry): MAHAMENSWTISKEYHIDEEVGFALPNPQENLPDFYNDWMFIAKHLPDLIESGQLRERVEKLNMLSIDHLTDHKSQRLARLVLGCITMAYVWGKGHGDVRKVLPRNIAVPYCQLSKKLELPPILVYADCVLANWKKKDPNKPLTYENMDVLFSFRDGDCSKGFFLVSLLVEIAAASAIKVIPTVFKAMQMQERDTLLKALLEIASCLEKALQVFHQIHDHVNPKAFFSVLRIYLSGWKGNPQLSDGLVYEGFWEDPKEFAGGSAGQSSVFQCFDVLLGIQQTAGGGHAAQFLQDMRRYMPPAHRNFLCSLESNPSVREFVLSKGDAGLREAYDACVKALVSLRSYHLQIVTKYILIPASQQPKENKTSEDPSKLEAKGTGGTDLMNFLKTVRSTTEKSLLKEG

Chain of Bromodomain-containing protein 2 (P25440 whole entry): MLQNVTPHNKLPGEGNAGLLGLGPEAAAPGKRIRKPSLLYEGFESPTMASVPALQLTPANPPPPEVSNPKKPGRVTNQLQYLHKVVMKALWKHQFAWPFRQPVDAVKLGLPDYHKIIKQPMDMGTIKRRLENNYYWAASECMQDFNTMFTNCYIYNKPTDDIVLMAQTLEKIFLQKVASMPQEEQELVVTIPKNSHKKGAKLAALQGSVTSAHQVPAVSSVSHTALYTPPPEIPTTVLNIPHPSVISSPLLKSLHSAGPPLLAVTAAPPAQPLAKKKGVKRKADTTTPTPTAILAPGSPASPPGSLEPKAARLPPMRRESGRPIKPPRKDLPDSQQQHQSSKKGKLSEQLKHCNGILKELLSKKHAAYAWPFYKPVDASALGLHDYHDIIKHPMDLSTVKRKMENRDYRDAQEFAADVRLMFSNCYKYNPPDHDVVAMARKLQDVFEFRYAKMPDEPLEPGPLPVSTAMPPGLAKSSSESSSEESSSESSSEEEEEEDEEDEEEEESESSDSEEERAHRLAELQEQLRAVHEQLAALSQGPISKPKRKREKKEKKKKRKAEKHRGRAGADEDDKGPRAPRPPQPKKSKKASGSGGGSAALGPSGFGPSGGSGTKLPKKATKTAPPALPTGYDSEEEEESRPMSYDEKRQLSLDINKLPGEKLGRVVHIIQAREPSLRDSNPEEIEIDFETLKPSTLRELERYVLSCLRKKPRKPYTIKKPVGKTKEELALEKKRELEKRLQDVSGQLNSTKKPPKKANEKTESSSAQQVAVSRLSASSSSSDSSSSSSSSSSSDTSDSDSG
Chain of Bromodomain-containing protein 3 (Q15059 whole entry): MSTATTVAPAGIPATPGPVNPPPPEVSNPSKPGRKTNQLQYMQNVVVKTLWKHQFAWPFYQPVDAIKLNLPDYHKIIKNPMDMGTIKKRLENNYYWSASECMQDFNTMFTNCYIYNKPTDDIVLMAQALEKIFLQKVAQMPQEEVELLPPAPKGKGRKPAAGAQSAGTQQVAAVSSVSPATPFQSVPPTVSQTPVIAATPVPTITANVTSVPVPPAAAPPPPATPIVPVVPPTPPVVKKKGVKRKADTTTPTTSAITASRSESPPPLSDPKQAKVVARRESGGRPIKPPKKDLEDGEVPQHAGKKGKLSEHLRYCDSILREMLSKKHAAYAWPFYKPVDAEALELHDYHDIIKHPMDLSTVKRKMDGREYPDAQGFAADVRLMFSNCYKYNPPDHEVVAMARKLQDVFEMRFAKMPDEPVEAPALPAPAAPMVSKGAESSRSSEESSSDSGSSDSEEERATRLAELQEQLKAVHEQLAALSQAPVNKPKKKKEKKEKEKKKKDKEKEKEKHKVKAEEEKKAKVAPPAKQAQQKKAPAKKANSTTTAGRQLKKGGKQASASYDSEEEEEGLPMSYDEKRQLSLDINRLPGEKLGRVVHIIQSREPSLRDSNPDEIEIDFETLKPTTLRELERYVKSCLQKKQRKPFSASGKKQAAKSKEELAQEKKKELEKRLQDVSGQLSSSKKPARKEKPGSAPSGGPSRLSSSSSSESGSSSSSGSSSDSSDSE
Chain of Mitogen-activated protein kinase 14 (P47811 whole entry, the tested form may be a part): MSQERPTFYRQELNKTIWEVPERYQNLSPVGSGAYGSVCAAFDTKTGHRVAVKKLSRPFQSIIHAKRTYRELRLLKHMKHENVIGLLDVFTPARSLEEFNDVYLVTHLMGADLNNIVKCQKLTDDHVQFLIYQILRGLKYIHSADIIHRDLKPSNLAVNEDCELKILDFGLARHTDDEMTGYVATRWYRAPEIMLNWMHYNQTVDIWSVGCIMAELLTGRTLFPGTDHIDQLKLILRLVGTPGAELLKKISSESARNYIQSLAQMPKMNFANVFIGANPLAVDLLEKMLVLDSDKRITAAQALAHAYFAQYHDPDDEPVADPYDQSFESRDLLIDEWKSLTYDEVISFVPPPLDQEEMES
Chain of Casein kinase I isoform delta (P48730 whole entry, canonical isoform): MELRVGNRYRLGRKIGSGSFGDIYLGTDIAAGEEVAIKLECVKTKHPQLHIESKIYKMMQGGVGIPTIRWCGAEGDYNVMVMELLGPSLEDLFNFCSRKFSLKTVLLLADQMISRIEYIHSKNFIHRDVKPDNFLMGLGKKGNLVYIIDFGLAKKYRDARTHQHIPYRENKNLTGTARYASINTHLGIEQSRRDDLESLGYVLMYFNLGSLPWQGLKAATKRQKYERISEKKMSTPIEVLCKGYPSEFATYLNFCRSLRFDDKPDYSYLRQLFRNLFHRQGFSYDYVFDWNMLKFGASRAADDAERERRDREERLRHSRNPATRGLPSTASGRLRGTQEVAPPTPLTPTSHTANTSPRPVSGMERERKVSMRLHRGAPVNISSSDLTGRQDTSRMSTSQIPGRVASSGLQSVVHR
Chain of Casein kinase I isoform epsilon (P49674 whole entry, canonical isoform): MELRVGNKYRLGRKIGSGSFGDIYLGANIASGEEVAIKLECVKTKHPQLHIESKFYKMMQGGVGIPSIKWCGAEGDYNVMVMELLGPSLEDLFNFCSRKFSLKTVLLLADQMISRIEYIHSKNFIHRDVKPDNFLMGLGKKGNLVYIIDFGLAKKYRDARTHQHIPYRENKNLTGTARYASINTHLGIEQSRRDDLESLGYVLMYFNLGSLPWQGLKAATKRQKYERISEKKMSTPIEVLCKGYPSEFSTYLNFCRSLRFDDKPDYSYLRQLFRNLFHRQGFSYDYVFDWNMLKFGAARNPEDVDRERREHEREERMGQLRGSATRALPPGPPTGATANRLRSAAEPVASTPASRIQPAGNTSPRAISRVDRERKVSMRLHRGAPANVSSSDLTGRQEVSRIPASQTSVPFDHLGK
Chain of MAP kinase-activated protein kinase 2 (P49137 whole entry, the tested form may be a part): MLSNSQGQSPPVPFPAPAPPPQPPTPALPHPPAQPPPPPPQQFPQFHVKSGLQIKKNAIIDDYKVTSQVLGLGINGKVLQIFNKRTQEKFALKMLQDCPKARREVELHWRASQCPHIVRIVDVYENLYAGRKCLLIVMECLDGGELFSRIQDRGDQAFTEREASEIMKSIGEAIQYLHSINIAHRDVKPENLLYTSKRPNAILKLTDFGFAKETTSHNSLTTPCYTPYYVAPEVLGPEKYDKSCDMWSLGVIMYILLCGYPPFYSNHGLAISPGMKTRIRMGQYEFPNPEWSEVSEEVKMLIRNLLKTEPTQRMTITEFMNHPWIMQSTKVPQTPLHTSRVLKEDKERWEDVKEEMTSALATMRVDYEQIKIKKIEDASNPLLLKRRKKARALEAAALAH

## O=C(c1ccccc1-c1ccccc1)N1CCc2c([nH]c3ccccc23)C1
[1]
  pEC50: > 6.00

## CC[C@@H]1C(=O)N(C)c2cnc(Nc3ccc(C(=O)N[C@H]4CC[C@H](N5CCN(CC6CC6)CC5)CC4)cc3OC)nc2N1C(C)C [VOLASERTIB]
[2]
  pKd: 7.10

## O=C(CCCc1ccc(-c2ccccc2F)cc1)Nc1ccc(O)cc1
[3]
  pIC50: 6.48
[4]
  pEC50: > 6.00

## O=c1cc(N2CCNCC2)oc2c(-c3ccccc3)cccc12
[5]
  pIC50: 5.04
[6]
  pIC50: 5.13
[7]
  pIC50: 4.94

## Cc1cn(-c2cc(NC(=O)c3ccc(C)c(Nc4nccc(-c5cccnc5)n4)c3)cc(C(F)(F)F)c2)cn1 [NILOTINIB]
[8]
  pIC50: 5.74

## Cc1ccc(-c2ccc3c(ccc4sc5c(c43)NC[C@@H](C)NC5=O)n2)cn1
[9]
  pKi: 8.30

## Oc1ccc(-c2nc(-c3ccc(F)cc3)c(-c3ccncc3)[nH]2)cc1 [SB-202190]
[2]
  pKd: 5.47

## Cc1cnc(Nc2ccc(N3CCN(C)CC3)cc2)nc1Nc1cccc(S(=O)(=O)NC(C)(C)C)c1
[10]
  pIC50: 7.60

## CC1(C)CC2CC(C)(CN2c2ncnc3[nH]cnc23)C1 (configuration not stated)
[11]
  pIC50: 6.66 to 7.00

## O=C1NC(=O)[C@@H](c2cn3c4c(cccc24)CCC3)[C@@H]1c1c[nH]c2ccccc12 [TIVANTINIB]
[12]
  pEC50: > 6.00

## O=c1cc(N2CCOCC2)oc2c(-c3ccccc3)cccc12 [LY-294002]
[5]
  pIC50: 4.91
[6]
  pIC50: 4.99
[7]
  pIC50: 4.86
[13]
  pIC50: 5.82

## CN(c1ccccc1CNc1nc(Nc2ccc3c(c2)CC(=O)N3)ncc1C(F)(F)F)S(C)(=O)=O
[2]
  pKd: 6.35

## Nc1nc(NCCc2ccccc2)c2nc[nH]c2n1
[11]
  pIC50: 6.66 to 7.00

## C[S+]([O-])c1ccc(-c2nc(-c3ccc(F)cc3)c(-c3ccncc3)[nH]2)cc1 (configuration not stated)
[14]
  ΔTm: 1.3 °C
[15]
  ΔTm: 0.85 °C

## CCCS(=O)(=O)Nc1ccc(F)c(C(=O)c2c[nH]c3ncc(-c4ccc(Cl)cc4)cc23)c1F [VEMURAFENIB]
[16]
  pEC50: 5.30

## COc1cc(OC)c(/C=C2/C(=O)Nc3ccccc32)c(OC)c1
[17]
  pIC50: 4.60 to 6.00
[18]
  pIC50: 4.60 to 6.00
[19]
  pEC50: > 6.00

## CN1C(=O)C(Cc2c[nH]c3ccccc23)NC1=S (configuration not stated) [NECROSTATIN]
[20]
  pIC50: 6.74
[21]
  pIC50: 3.94
